Laboratory results reported in patent publication US20230286973A1, “PROTEIN SECRETION INHIBITORS” (KEZAR LIFE SCIENCES, priority 2020, published 2023).
Read-outs that look alike come from different tables or passages of the source.

Tests used:
[1] = system: IL-2-FL/Gaussia Luciferase; test: Dox Induced IL2-FL-Gluc Assay; assay type: cell-based; details: for IC50: 24 hr Dox induction, 293FRT/TO cells, read-out: 24 hr Dox Inducible IL2FLGluc 293FRT/TO: Mean IC50; for 24 hr Dox Inducible IL2FLGluc 293FRT/TO: IL2/PD1: ratio of IL2FLGluc IC50 to PD1ssGluc IC50
Procedure, shortened: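 Stable Flp-In 293 T-REx line, Tet-regulated IL-2 (aa 1-153)–Gaussia luciferase fusion; hygromycin/blasticidin selected. Plated day -1; compound + doxycycline added next day; 37° C, 5% CO2.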

[2] = system: TNFα-FL/Gaussia Luciferase; test: Dox Induced TNFα-FL-Gluc Assay; assay type: cell-based; details: for IC50: 24 hr Dox induction, 293FRT/TO cells, read-out: 24 hr Dox Inducible TNFaFLGluc 293FRT/TO: Mean IC50; for 24 hr Dox Inducible TNFaFLGluc 293FRT/TO: TNF/PD1: ratio of TNFaFLGluc IC50 to PD1ssGluc IC50
Excerpt: (§1) Flp-In 293 T-REx™ cells were transfected with pcDNA™5/FRT/TO plasmid inserted with cDNA encoding Gaussia Luciferase fused to the 3′ end of cDNA encoding full length TNFα (amino acids 1-233). Transfected cells were selected for resistance to the selectable markers Hygromycin and Blasticidin to create a stable cell line that contained the TNFα-FL/Gaussia Luciferase cDNA insert whose expression was regulated under the T-REx™ system. The day before assay, cells were trypsinized and plated in 384-well tissue culture plates. The next day, compound dilutions in DMSO/media containing doxycycline were added to the wells and incubated at 37° C., 5% CO2.
(§2) For chemical structures that include one or more stereoisomers, but are illustrated without indicating stereochemistry, the assay data refers to a mixture of stereoisomers.

[3] = system: HER3-ss+4aa/Gaussia Luciferase; test: Dox-Induced Her3-ss-Gluc Assay; assay type: cell-based; details: 24 hr Dox induction; 293FRT/TO cells; read-out: 24 hr Dox Inducible Her3(ss + 4)Gluc 293FRT/TO: Mean IC50
Excerpt: as §1, with “HER3 signal sequence plus 4 amino” for “full length TNFα (amino”, “(N-[…]-C) (SEQ ID NO: 2).” for “1-233).”, “HER3-ss+4aa/Gaussia” for “TNFα-FL/Gaussia”
as §2

[4] = system: multiple myeloma cell line NCI-H929; test: H929 Cell Viability Assay; assay type: cell-based, human; details: Homo sapiens, NCI-H929, 48 h, NCI-H929 cells, Celltiter-Glo
Experimental: The human multiple myeloma cell line NCI-H929 was cultured in Advanced RPMI 1640 media (Gibco®) supplemented with 6% fetal bovine serum, 2 mM Glutamine, and 1× Penicillin/Streptomycin. On the day of assay, cells were resuspended in RPMI 1640 media supplemented with 10% fetal bovine serum, 2 mM Glutamine, and 1× Penicillin/Streptomycin and plated in 384-well tissue culture plates and treated with compound dilutions in DMSO/media. Plates were incubated at 37° C., 5% CO2 for 48 hours. After 48 hours, Celltiter-Glo® (Promega) was added to each well and luciferase signal was quantified using Tecan Infinite M1000 Pro for cell viability determination.
as §2

[5] = system: multiple myeloma cell line U266B1; test: U266 Cell Viability Assay; assay type: cell-based, human; details: Homo sapiens, U-266, 48 h, U266B1 cells, Celltiter-Glo
Experimental: The human multiple myeloma cell line U266B1 was cultured in RPMI 1640 media supplemented with 10% fetal bovine serum, 2 mM Glutamine, and 1× Penicillin/Streptomycin. Cells were plated in 384-well tissue culture plates and treated with compound dilutions in DMSO/media. Plates were incubated at 37° C., 5% CO2 for 48 hours. After 48 hours, Celltiter-Glo® (Promega) was added to each well and luciferase signal was quantified using Tecan Infinite M1000 Pro for cell viability determination.
as §2

[6] = system: PD1-ss+10aa/Gaussia Luciferase; test: Dox-Induced PD1-ss-Gluc Assay; assay type: cell-based; details: 24 hr Dox induction, 293FRT/TO cells, read-out: 24 hr Dox Inducible PD1ssGluc 293FRT/TO: Mean IC50
Procedure, shortened: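 The cell line was made by transfecting Flp-In 293 T-REx cells with a PD1 signal sequence+10aa–Gaussia luciferase fusion under T-REx control and selecting with hygromycin and blasticidin. Cells were seeded, and next day compound plus doxycycline was added at 37 °C, 5% CO2.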

[7] = Liver Microsome Stability Assay (rat); details: rat liver microsomes, with NADPH, 1.0 uM compound
Experimental: (§3) Stability of a compound was assessed in the presence of liver microsomes from various sources—mouse, rat, monkey and human liver microsomes. 1.0 uM compound, 0.4% DMSO in 0.1 M Potassium Phosphate with 1.0 mg/mL liver microsomes, were incubated at 37° C. with or without 1 mM NADPH. The samples were quenched at 0, and 30 minutes.

[8] = Liver Microsome Stability Assay (monkey); details: monkey liver microsomes, with NADPH, 1.0 uM compound
Experimental: as §3

[9] = Liver Microsome Stability Assay (mouse); details: mouse liver microsomes, with NADPH, 1.0 uM compound
Experimental: as §3

[10] = Liver Microsome Stability Assay (human); details: human liver microsomes, with NADPH, 1.0 uM compound
Experimental: as §3

Row | SMILES | IC50 [1] | 24 hr Dox Inducible IL2FLGluc 293FRT/TO: IL2/PD1 [1] | IC50 [2] | 24 hr Dox Inducible TNFaFLGluc 293FRT/TO: TNF/PD1 [2] | IC50 [3] | EC50 [4] | EC50 [5] | IC50 [6] | IC50 ([1]; mean) | 24 hr Dox Inducible IL2FLGluc 293FRT/TO: IL2/PD1 ([1]; '<=>' given where both are I.A.) | Liver Microsome Stability (Multiple Species): Rat - % Remaining after 30 min w/NADPH [7] | IC50 ([6]; mean) | Liver Microsome Stability (Multiple Species): Monkey - % Remaining after 30 min w/NADPH [8] | Liver Microsome Stability (Multiple Species): Mouse - % Remaining after 30 min w/NADPH [9] | Liver Microsome Stability (Multiple Species): Human - % Remaining after 30 min w/NADPH [10]
1 | CCc1cccc2nc(/C=C/c3csc(NC(=O)c4cccn4Cc4ccnc(F)c4)n3)cn12 [Compound B78, (E)-N-(4-(2-(5-ethylimidazo[1,2-a]pyridin-2-yl)vinyl)thiazol-2-yl)-1-((2-fluoropyridin-4-yl)methyl)-1H-pyrrole-2-carboxamide] | > 25000 nM | >60 | > 25000 nM | >59.8 | > 25000 nM | > 25000 nM | > 25 µM | 418 nM |  |  |  |  |  |  | 
2 | Cc1cn(C(C)C)nc1/C=C/c1csc(NC(=O)c2cccn2Cc2ccncc2)n1 [Compound B80, (E)-N-(4-(2-(1-isopropyl-4-methyl-1H-pyrazol-3-yl)vinyl)thiazol-2-yl)-1-(pyridin-4-ylmethyl)-1H-pyrrole-2-carboxamide] | 5370 nM | 14 | 7270 nM | 19.5 | 3140 nM | 16200 nM | 19 µM | 372 nM |  |  |  |  |  |  | 
3 | CC(C)Oc1ccc(N2CCC[C@@H]2c2csc(NC(=O)c3cccn3Cc3ccnc(F)c3)n2)cc1 [Compound A120, (R)-1-((2-fluoropyridin-4-yl)methyl)-N-(4-(1-(4-isopropoxyphenyl)pyrrolidin-2-yl)thiazol-2-yl)-1H-pyrrole-2-carboxamide] | 42.6 nM | 1.7 | 158 nM | 6.44 | 34.5 nM | 831 nM | > 25 µM | 24.5 nM |  |  |  |  |  |  | 
4 | CS(=O)(=O)Nc1ccc(N2CCC[C@@H]2c2csc(NC(=O)c3cccn3Cc3ccnc(F)c3)n2)cc1 [Compound A118, (R)-1-((2-fluoropyridin-4-yl)methyl)-N-(4-(1-(4-(methylsulfonamido)phenyl)pyrrolidin-2-yl)thiazol-2-yl)-1H-pyrrole-2-carboxamide] | 129 nM | 1.2 | 888 nM | 8.6 | 135 nM | 1800 nM | > 25 µM | 103 nM |  |  |  |  |  |  | 
5 | CNC(=O)Nc1ccc(N2CCC[C@@H]2c2csc(NC(=O)c3cccn3Cc3ccnc(F)c3)n2)cc1 [Compound A119, (R)-1-((2-fluoropyridin-4-yl)methyl)-N-(4-(1-(4-(3-methylureido)phenyl)pyrrolidin-2-yl)thiazol-2-yl)-1H-pyrrole-2-carboxamide] | 7.35 nM | 4.2 | 41.3 nM | 23.5 | 6.31 nM | 133 nM | > 25 µM | 1.76 nM |  |  |  |  |  |  | 
6 | CCc1cccc2nc(/C=C/c3csc(NC(=O)c4cccn4Cc4ccncc4)n3)cn12 [Compound B79, (E)-N-(4-(2-(5-ethylimidazo[1,2-a]pyridin-2-yl)vinyl)thiazol-2-yl)-1-(pyridin-4-ylmethyl)-1H-pyrrole-2-carboxamide] | 4340 nM | 10 | > 25000 nM | >60.1 | 3580 nM | > 25000 nM | > 25 µM | 416 nM |  |  |  |  |  |  | 
7 | C#CCCn1cccc1C(=O)Nc1nc([C@H]2CCCN2c2ccccc2)cs1 [Compound C62, (R)-1-(but-3-yn-1-yl)-N-(4-(1-phenylpyrrolidin-2-yl)thiazol-2-yl)-1H-pyrrole-2-carboxamide] |  |  |  |  |  | > 25000 nM | > 25 µM |  | > 25000 nM | >3.0 | 8.75% | 8440 nM | 0.74% | 35.4% | 53%
